Results taken from patent US7186709B2, “Dihydropyrancarboxamides and uses thereof” (President and Fellows of Harvard College, priority 2002, dated 2007).

Columns and labels:
human Eg5 = target: T1, human Eg5 (Homo sapiens, UniProt P52732); assay: steady-state Eg5 ATPase assay (NADH-coupled); type: biochemical; details: library screen
T1 construct: 1 μM microtubules and 40 nM Eg5-367H; His6 (C); made in house; host or cells: pRSETa backbone
T1 sequence (P52732 1-367): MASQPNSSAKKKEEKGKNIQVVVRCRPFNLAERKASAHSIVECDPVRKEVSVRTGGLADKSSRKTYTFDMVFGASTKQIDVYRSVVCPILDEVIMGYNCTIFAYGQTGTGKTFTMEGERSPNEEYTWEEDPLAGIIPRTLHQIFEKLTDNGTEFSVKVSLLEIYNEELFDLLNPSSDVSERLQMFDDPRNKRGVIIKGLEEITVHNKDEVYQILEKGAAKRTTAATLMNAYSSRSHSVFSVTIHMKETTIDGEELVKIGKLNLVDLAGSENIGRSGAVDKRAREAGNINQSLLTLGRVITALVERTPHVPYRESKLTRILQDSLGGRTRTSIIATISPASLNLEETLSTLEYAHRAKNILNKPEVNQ
Source text: Coding regions for the expression of C-terminally His6-tagged constructs of human Eg5 were generated by polymerase chain reaction using a pBluescript template containing full length human Eg5 [23] and the following primers: a common N-terminal primer 5′-[…] and specific C-teminal primers; 5′-[…] (hEg5–367H), 5′-[…] (hEg5–405H), 5′-[…] (hEg5–437H). The PCR products were ligated into a pRSETa backbone. Eg5 protein constructs were expressed and purified as described previously [Woehike, G., Ruby, A. K., Hart, C. L., Ly, B., Hom-Booher, N. and Vale, R. D. (1997) Microtubule interaction site of the kinesin motor. Cell. 90, 207–216]. […] The concentration of Eg5 was measured using the Edelhoch [Pace, C. […]
We measured the ATPase activity of Eg5 in vitro using an assay that couples the hydrolysis of ATP to the oxidation of NADH [Woehike, G., Ruby, A. K., Hart, C. […] In the assay, the concentration of ATP remains constant however, the decrease in NADH fluorescence is a convenient measure of the amount of ATP turned over. […] Time-points for NADH fluorescence were measured in 384 well black plates (NalgeneNUNC) by a Wallac Victor^2 1420 multilabel counter, umbelliferone filter set (excitation: 355 nm, emission: 420 nm), and the steady-state rate of fluorescence decay was calculated using a linear fit by Microsoft Excel. […]

[1] = test system: human A549 lung carcinoma cells; assay: genistein suppressor screen (BrdU cytoblot with 100 μM genistein challenge); type: cell-based; details: A549 cells challenged with 100 μM genistein
Experimental: Both plates of stock solutions (10) were used in phenotypic assays. In particular, we exposed living human A549 lung carcinoma cells to 708 (324+384) stock solutions under two different assay conditions. These experiments were performed with a hand-held pin-transfer tool, though our complete technology platform includes a pin-transfer robot capable of mapping into multiple microtiter plates. In certain embodiments, cultured cells exposed to 5-bromodeoxyuridine (BrdU) will incorporate this base analog into their DNA when actively dividing, and this incorporation can be detected by cytoblot assay using antibodies directed against BrdU (B. R. Stockwell, S. J. Haggarty, S. L. Schreiber, High-throughput screening of small molecules in miniaturized mammalian cell-based assays involving post-translational modifications, Chem. Biol. 6 (1999) 71–83). […] Thus, ‘hits’ in the former assay are detected as a loss of signal in a high-signal array (FIG. 14(a)), while ‘hits’ in the latter assay are detected as a gain of signal in a lowsignal array (FIG. 14(b)). […]
For each of these assays, aliquots from each of the two plates (10) were exposed to cells in duplicate to ensure the fidelity of the results. Compounds were scored as ‘hits’ only if they scored strongly in both replicates of a given experiment. […]

Row | Structure (SMILES) | Eg5 inhibitory activity (human Eg5) | BrdU incorporation judged by cytoblot assay [1]
1 | CCO[C@H]1OC(C(=O)NCc2ccc(F)cc2)=C[C@@H](c2ccccc2)[C@H]1CCCO | found to inhibit Eg5 | 
2 | O=c1c(-c2ccc(O)cc2)coc2cc(O)cc(O)c12 [genistein, 4′,5,7 trihydroxyisoflavone] |  | impaired
